Measurements: patent US8604042B2, “Bi-aryl meta-pyrimidine inhibitors of kinases” (TargeGen, Inc., priority 2005, dated 2013)
Structures can show the parent of a compound that is named as a salt.

Target: T1, recombinant JAK2 (Homo sapiens, UniProt O60674)
T1 construct: purchased Upstate Cell Signaling Solutions
Assay: IC50 value determinations for Jak2 kinase, luminescence-based kinase assay (Kinase-Glo)
Type: biochemical

T1 sequence (O60674 808-1132 limits assumed): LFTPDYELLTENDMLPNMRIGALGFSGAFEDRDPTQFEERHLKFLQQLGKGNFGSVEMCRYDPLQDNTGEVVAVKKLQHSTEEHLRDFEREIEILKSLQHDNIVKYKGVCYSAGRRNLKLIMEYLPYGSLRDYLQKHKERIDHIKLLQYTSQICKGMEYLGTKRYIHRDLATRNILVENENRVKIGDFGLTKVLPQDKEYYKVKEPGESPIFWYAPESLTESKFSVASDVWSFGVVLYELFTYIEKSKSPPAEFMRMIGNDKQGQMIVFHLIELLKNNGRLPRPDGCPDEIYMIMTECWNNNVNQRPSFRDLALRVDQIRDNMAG

| IC50 (Table 1) | Compound | also measured |
| --- | --- | --- |
| 42.5 nM | Cc1cnc(Nc2ccc(N3CCN(C)CC3)cc2)nc1Nc1cccc(C2CCNCC2)c1 [5-Methyl-N2-[4-(4-methyl-piperazin-1-yl)-phenyl]-N4-(3-piperidin-4-yl-phenyl)-pyrimidine-2,4-diamine] |  |
| 10.1 nM | Cc1cnc(Nc2ccc(CN3CCNCC3)cc2)nc1Nc1cccc2[nH]ccc12 [N4-(1H-Indol-4-yl)-5-methyl-N2-(4-piperazin-1-ylmethyl-phenyl)-pynmidine-2,4-diamine] |  |
| 16.9 nM | Cc1cnc(Nc2ccc(OCCN3CCCC3)cc2)nc1Nc1cccc2c1OCO2 [drawing 333, N4-Benzo[1,3]dioxol-4-yl-5-methyl-N2-[4-(2-pyrrolidin-1-ylethoxy)-phenyl]-pyrimidine-2,4-diamine] |  |
| 9.53 nM | Cc1cnc(Nc2ccc(N3CCN(C)CC3)cc2)nc1Nc1cccc2[nH]ccc12 [N4-(1H-indol-4-yl)-5-methyl-N2-(4-(4-methylpiperazin-1-yl)phenyl)pyrimidine-2,4-diamine Hydrochloride] |  |
| 16 nM | Cc1cnc(Nc2ccc(N3CCN(C)CC3)cc2)nc1Nc1cccc(C)c1C [5-methyl-N4-(2,3-dimethylphenyl)-N2-(4-(4-methylpiperazin-1-yl)phenyl)pyrimidine-2,4-diamine Hydrochloride] |  |
| 1050 nM | Cc1cnc(Nc2ccc(OCCN3CCCC3)cc2)nc1Nc1nccc2ccccc12 [N2-(4-(2-(pyrrolidin-1-yl)ethoxy)phenyl)-N4-(isoquinolin-1-yl)-5-methylpyrimidine-2,4-diamine] |  |
| 3.84 nM | Cc1cnc(Nc2ccc(N3CCN(C)CC3)cc2)nc1Nc1ccc(C)c2[nH]ccc12 [5-methyl-N4-(7-methyl-1H-indol-4-yl)-N2-(4-(4-methylpiperazin-1-yl)phenyl)pyrimidine-2,4-diamine Hydrochloride] |  |
| 7.42 nM | Cc1cnc(Nc2ccc(CN3CCOCC3)cc2)nc1Nc1cccc2[nH]ccc12 [N4-(1H-Indol-4-yl)-5-methyl-N2-(4-morpholin-4-ylmethyl-phenyl)-pyrimidine-2,4-diamine] |  |
| 26.2 nM | Cc1cnc(Nc2ccc(N3CCN(C)CC3)cc2)nc1Nc1cccc(C(N)=O)c1C [2-Methyl-3-{5-methyl-2-[4-(4-methyl-piperazin-1-yl)-phenylamino]-pyrimidin-4-ylamino}-benzamide] |  |
| 146 nM | CC(=O)Nc1cccc(Nc2nc(Nc3ccc(OC4CCNCC4)cc3)ncc2C)c1C [N-(2-Methyl-3-(5-methyl-2-[4-(piperidin-4-yloxy)-phenylamino]-pyrimidin-4-ylamino}-phenyl)-acetamide] |  |
| 12.1 nM | COc1cc(Nc2nc(Nc3ccc(N4CCNCC4)nc3)ncc2C)ccc1Cl [N4-(4-Chloro-3-methoxy-phenyl)-5-methyl-N2-(6-piperazin-1-yl-pyridin-3-yl)-pyrimidine-2,4-diamine] |  |
| 29.8 nM | Cc1cnc(Nc2ccc(CN3CCN(C)CC3)cc2)nc1Nc1cccc(S(=O)(=O)NC(C)(C)C)c1 |  |
| 203 nM | Cc1cnc(Nc2ccc(OCCN3CCCC3)cc2)nc1Nc1cccc(O)c1 [3-(2-(4-(2-(pyrrolidin-1-yl)ethoxy)phenylamino)-5-methylpyrimidin-4-ylamino)phenol Hydrochloride] |  |
| 14.2 nM | Cc1cnc(Nc2ccc(N3CCN(C)CC3)cc2)nc1Nc1cccc2c1OCO2 [N4-Benzo[1,3]dioxol-4-yl-5-methyl-N2-[4-(4-methyl-piperazin-1-yl)-phenyl]-pyrimidine-2,4-diamine] |  |
| 6.98 nM | Cc1cnc(Nc2ccc(OCCN3CCCC3)cc2)nc1Nc1ccc(C)c2[nH]ccc12 [N2-(4-(2-(pyrrolidin-1-yl)ethoxy)phenyl)-5-methyl-N4-(7-methyl-1H-indol-4-yl)pyrimidine-2,4-diamine Hydrochloride] |  |

Continued, compound first:

| Compound | IC50 (Table 1) | also measured |
| --- | --- | --- |
| Cc1cnc(Nc2ccc(Cn3ccnc3)cc2)nc1Nc1cccc(S(=O)(=O)NC(C)(C)C)c1 [N-tert-Butyl-3-[2-(4-imidazol-1-ylmethyl-phenylamino)-5-methyl-pyrimidin-4-ylamino]-benzenesulfonamide] | 8.42 nM |  |
| Cc1cnc(Nc2ccc(N3CCNCC3)c(C(F)(F)F)c2)nc1Nc1cccc(S(=O)(=O)NC(C)(C)C)c1 [N-tert-butyl-3-[(5-methyl-2-{[4-piperazin-1-yl-3-(trifluoromethyl)phenyl]amino}pyrimidin-4-yl)amino]benzenesulfonamide] | 22.5 nM |  |
| Cc1cnc(Nc2ccc(OCCN3CCCC3)cc2)nc1Nc1ccc(C#N)c(Cl)c1 [4-(2-(4-(2-(pyrrolidin-1-yl)ethoxy)phenylamino)-5-methylpyrimidin-4-ylamino)-2-chlorobenzonitrile Hydrochloride] | 67.5 nM |  |
| Cc1cnc(Nc2ccc(OCCN3CCCC3)cc2)nc1Nc1ccc2sccc2c1 [N4-Benzo[b]thiophen-5-yl-5-methyl-N2-[4-(2-pyrrolidin-1-yl-ethoxy)-phenyl]-pyrimidine-2,4-diamine] | 28.5 nM |  |
| COC(=O)c1cc(Nc2ncc(C)c(Nc3ccc(Cl)c(OC)c3)n2)ccc1N1CCNCC1 [5-[4-(4-Chloro-3-methoxy-phenylamino)-5-methyl-pyrimidin-2-ylamino]-2-piperazin-1-yl-benzoic acid methyl ester] | 5.12 nM |  |
| Cc1cnc(Nc2ccc(N3CCN(C)CC3)cc2)nc1Nc1cccc(S(=O)(=O)C2CCNCC2)c1 [5-Methyl-N2-[4-(4-methyl-piperazin-1-yl)-phenyl]-N4-[3-(piperidine-4-sulfonyl)-phenyl]-pyrimidine-2,4-diamine] | 198 nM |  |
| Cc1cnc(Nc2ccc(N3CCN(C)CC3)cc2)nc1Nc1cccc(N2CCCCC2)c1 [5-methyl-N2-(4-(4-methylpiperazin-1-yl)phenyl)-N4-(3-(piperidin-1-yl)phenyl)pyrimidine-2,4-diamine] | 46.3 nM |  |
| Cc1cnc(Nc2ccc(N3CCN(C)CC3)cc2)nc1Nc1cccc(C2CCN(CCO)CC2)c1 [2-[4-(3-{5-Methyl-2-[4-(4-methyl-piperazin-1-yl)-phenylamino]-pyrimidin-4-ylamino}-phenyl)-piperidin-1-yl]-ethanol] | 8.46 nM |  |
| COc1cc(Nc2nc(Nc3ccc(OC4CCNCC4)cc3)ncc2C)ccc1Cl [drawing 349, N4-(4-Chloro-3-methoxy-phenyl)-5-methyl-N2-[4-(piperidin-4-yloxy)-phenyl]-pyrimidine-2,4-diamine] | 4.14 nM |  |
| COc1cccc(Nc2nc(Nc3ccc(OCCN4CCCC4)cc3)ncc2C)c1 [drawing 301, N2-(4-(2-(pyrrolidin-1-yl)ethoxy)phenyl)-N4-(3-methoxyphenyl)-5-methylpyrimidine-2,4-diamine Hydrochloride] | 52.8 nM |  |
| Cc1cc(C)cc(Nc2nc(Nc3ccc(OC4CCNCC4)cc3)ncc2C)c1 [5-methyl-N4-(3,5-dimethylphenyl)-N2-(4-(piperidin-4-yloxy)phenyl)pyrimidine-2,4-diamine hydrochloride] | 37.2 nM |  |
| Cc1nc(Nc2ccccc2)nc(Nc2cccc3c2OCO3)c1C [Compound 8] |  | IC50 (Table 7, SAR for the P3 region): > 10000 nM |
| COc1cc(Nc2nc(Nc3ccc(-n4cccn4)cc3)ncc2C)ccc1Cl [N4-(4-Chloro-3-methoxy-phenyl)-5-methyl-N2-(4-pyrazol-1-yl-phenyl)-pyrimidine-2,4-diamine trifluoroacetate] | 35.3 nM |  |
| Cc1cnc(Nc2ccc(OCCO)nc2)nc1Nc1cccc2c1OCO2 [2-{5-[4-(Benzo[1,3]dioxol-4-ylamino)-5-methyl-pyrimidin-2-ylamino]-pyridin-2-yloxy}-ethanol] | 116 nM |  |
| Cc1cnc(Nc2ccc(N3CCN(C)CC3)cc2)nc1Nc1cccc(C(=O)NC(C)C)c1 [N-Isopropyl-3-{5-methyl-2-[4-(4-methyl-piperazin-1-yl)-phenylamino]-pyrimidin-4-ylamino}-benzamide] | 541 nM |  |
| Cc1cnc(Nc2ccc(OCCN3CCCC3)cc2)nc1Nc1cccc(C(F)(F)F)c1 [N2-(4-(2-(pyrrolidin-1-yl)ethoxy)phenyl)-N4-(3-(trifluoromethyl)phenyl)-5-methylpyrimidine-2,4-diamine] | 17.6 nM |  |
| Cc1cn(-c2ccc(Nc3ncc(C)c(Nc4cccc(S(=O)(=O)NC(C)(C)C)c4)n3)cc2)cn1 [N-tert-Butyl-3-{5-methyl-2-[4-(4-methyl-imidazol-1-yl)-phenylamino]-pyrimidin-4-ylamino}-benzenesulfonamide] | 41.7 nM |  |
| Cc1cnc(Nc2ccc(OC3CCNCC3)cc2)nc1Nc1cccc(C(C)(C)C)c1 [N4-(3-tert-butylphenyl)-5-methyl-N2-(4-(piperidin-4-yloxy)phenyl)pyrimidine-2,4-diamine Hydrochloride] | 2.73 nM |  |
| Cc1cnc(Nc2ccc(-n3cncn3)cc2)nc1Nc1cccc(S(=O)(=O)NC(C)(C)C)c1 [N-tert-Butyl-3-[5-methyl-2-(4-[1,2,4]triazol-1-yl-phenylamino)-pyrimidin-4-ylamino]-benzenesulfonamide] | 41.4 nM |  |
| Cc1cnc(Nc2ccc(N3CCN(C)CC3)cc2)nc1Nc1cccc(C(N)=O)c1 [3-{5-Methyl-2-[4-(4-methyl-piperazin-1-yl)-phenylamino]-pyrimidin-4-ylamino}-benzamide] | 23 nM |  |
| COc1cccc(Nc2ccnc(Nc3ccc(OCCN4CCCC4)cc3)n2)c1 [Compound 4] |  | IC50 (Table 6): 105 nM; IC50 (Table 7, SAR for the P3 region): 105 nM; IC50 (Table 8, SAR of the P4 region): 105 nM |
| COc1ccc(Nc2ncc(C)c(Nc3cccc4c3OCO4)n2)cc1 [Compound 7] |  | IC50 (Table 7, SAR for the P3 region): 46 nM |
| COc1cc(Nc2nc(Nc3cccc(OCCN4CCCC4)c3)ncc2C)c(Cl)cc1Cl [Compound 3] |  | IC50 (Table 5, Initial Screening Hits for JAK2): 2040 nM; IC50 (Table 7, SAR for the P3 region): 2040 nM |
| COc1cc(Nc2nc(Nc3ccc(OCCN4CCCC4)cc3)ncc2C#N)c(Cl)cc1Cl [drawing 298, 4-(2,4-Dichloro-5-methoxy-phenylamino)-2-[4-(2-pyrrolidin-1-yl-ethoxy)-phenylamino]-pyrimidine-5-carbonitrile] | 6240 nM |  |
| Cc1cnc(Nc2ccc(-n3ccnc3C)cc2)nc1Nc1cccc(C(C)(C)C)c1 [N4-(3-tert-butylphenyl)-5-methyl-N2-(4-(2-methyl-1H-imidazol-1-yl)phenyl)pyrimidine-2,4-diamine Hydrochloride] | 38.4 nM |  |
| COc1cc(Nc2nc(Nc3ccc(N4CCCCC4)cc3)ncc2C)ccc1Cl [N4-(4-Chloro-3-methoxy-phenyl)-5-methyl-N2-(4-piperidin-1-yl-phenyl)-pyrimidine-2,4-diamine] | 35.3 nM |  |
